Laboratory results published in ChEMBL document CHEMBL1201862, “PubChem BioAssay data set” (2004).
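48-hour exposure; five concentrations; linearly interpolated endpoints. GI50 is the concentration that inhibits growth by half.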 Activity calls are given as the source filed them. No stated cut-off is given here; in the data, active = GI50 up to about 1.1 µM and inactive = higher.

Key:
Test in all cases: DTP human tumour cell line panel, 48 h
786-0 = test system: 786-0
CCRF-CEM = test system: CCRF-CEM
HCT-116 = test system: HCT-116
HL-60 = test system: HL-60
HOP-62 = test system: HOP-62
HT-29 = test system: HT-29
KM12 = test system: KM12
LXFL 529 = test system: LXFL 529
MOLT-4 = test system: MOLT-4
NCI-H460 = test system: NCI-H460
NCI-H522 = test system: NCI-H522
OVCAR-5 = test system: OVCAR-5
SF-268 = test system: SF-268
SF-539 = test system: SF-539
SN12C = test system: SN12C
SW-620 = test system: SW-620
U-251 = test system: U-251
UACC-257 = test system: UACC-257
UACC-62 = test system: UACC-62

SMILES	GI50 (786-0)	GI50 (CCRF-CEM)	GI50 (HCT-116)	GI50 (HL-60)	GI50 (HOP-62)	GI50 (HT-29)	GI50 (KM12)	GI50 (LXFL 529)	GI50 (MOLT-4)	GI50 (NCI-H460)	GI50 (NCI-H522)	GI50 (OVCAR-5)	GI50 (SF-268)	GI50 (SF-539)	GI50 (SN12C)	GI50 (SW-620)	GI50 (U-251)	GI50 (UACC-257)	GI50 (UACC-62)
Cc1cccc(NC(=O)/C=C/c2ccc(N(CCC#N)CCC#N)cc2C)c1	> 100 µM (inactive)	33 µM (inactive)	> 100 µM (inactive)	21.5 µM (inactive)	> 100 µM (inactive)	> 100 µM (inactive)	> 100 µM (inactive)	23.4 µM (inactive)	> 100 µM (inactive)	> 100 µM (inactive)	> 100 µM (inactive)	> 100 µM (inactive)	81.5 µM (inactive)	> 100 µM (inactive)	> 100 µM (inactive)	> 100 µM (inactive)	> 100 µM (inactive)	> 100 µM (inactive)	28 µM (inactive)
CCOC(=O)NN1C(=O)C(=P(c2ccccc2)(c2ccccc2)c2ccccc2)C(C(=O)OC)=C1C	> 100 µM (inactive)	> 100 µM (inactive)	> 100 µM (inactive)	> 100 µM (inactive)	> 100 µM (inactive)	> 100 µM (inactive)	> 100 µM (inactive)	> 100 µM (inactive)	> 100 µM (inactive)	> 100 µM (inactive)	> 100 µM (inactive)	> 100 µM (inactive)	> 100 µM (inactive)	> 100 µM (inactive)	> 100 µM (inactive)	> 100 µM (inactive)	> 100 µM (inactive)	> 100 µM (inactive)	> 100 µM (inactive)
CCCCCCCCCCCc1noc2c1C(=O)C(O)CC2 (stereo unspecified)	17.9 µM (inactive)	25.1 µM (inactive)	17.6 µM (inactive)	23.9 µM (inactive)	45.8 µM (inactive)	18.8 µM (inactive)	22.9 µM (inactive)	16.6 µM (inactive)	22.3 µM (inactive)	20 µM (inactive)	20.5 µM (inactive)	18.2 µM (inactive)	38.5 µM (inactive)	22.2 µM (inactive)	16.1 µM (inactive)	18 µM (inactive)	14.6 µM (inactive)	20.5 µM (inactive)	16.4 µM (inactive)
CCCCN(CCCC)C(=O)C(=O)CC(=O)/C=C/c1ccccc1	> 100 µM (inactive)	> 100 µM (inactive)	> 100 µM (inactive)	> 100 µM (inactive)	> 100 µM (inactive)	> 100 µM (inactive)	> 100 µM (inactive)	> 100 µM (inactive)	> 100 µM (inactive)	> 100 µM (inactive)	> 100 µM (inactive)	> 100 µM (inactive)	> 100 µM (inactive)	> 100 µM (inactive)	> 100 µM (inactive)	> 100 µM (inactive)	> 100 µM (inactive)	> 100 µM (inactive)	> 100 µM (inactive)
Cn1cc(-c2ccc3c4ccccc4n(C)c3c2)c2ccccc21	> 100 µM (inactive)	> 100 µM (inactive)	> 100 µM (inactive)	75 µM (inactive)	> 100 µM (inactive)	89.9 µM (inactive)	93.3 µM (inactive)	> 100 µM (inactive)	> 100 µM (inactive)	> 100 µM (inactive)	> 100 µM (inactive)	> 100 µM (inactive)	> 100 µM (inactive)	> 100 µM (inactive)	> 100 µM (inactive)	> 100 µM (inactive)	> 100 µM (inactive)	> 100 µM (inactive)	> 100 µM (inactive)
CCCCCCCCCCCCCCCC(=O)OCC1OC(OC)C2NP(=O)(N(CCCl)CCCl)OC1C2O (stereo unspecified)	0.44 µM (active)	0.142 µM (active)	3.3 µM (inactive)	0.117 µM (active)	1 µM (active)	17.1 µM (inactive)	16.3 µM (inactive)	2.43 µM (inactive)	0.0288 µM (active)	0.54 µM (active)	0.916 µM (active)	20.8 µM (inactive)	1.67 µM (inactive)	0.887 µM (active)	1.05 µM (active)	2.22 µM (inactive)	1.32 µM (inactive)	12.1 µM (inactive)	1.23 µM (inactive)
COc1ccc2c(C3(O)CCNCC3)c[nH]c2c1	> 100 µM (inactive)	> 100 µM (inactive)		> 100 µM (inactive)	> 100 µM (inactive)	> 100 µM (inactive)	> 100 µM (inactive)	> 100 µM (inactive)	> 100 µM (inactive)	> 100 µM (inactive)	> 100 µM (inactive)	> 100 µM (inactive)	> 100 µM (inactive)	> 100 µM (inactive)	> 100 µM (inactive)	> 100 µM (inactive)	> 100 µM (inactive)		> 100 µM (inactive)
CC1(C)CCc2cc3c(cc2O1)OCCC3=O	> 100 µM (inactive)	> 100 µM (inactive)	> 100 µM (inactive)	95.1 µM (inactive)	> 100 µM (inactive)	> 100 µM (inactive)	> 100 µM (inactive)	> 100 µM (inactive)	> 100 µM (inactive)	> 100 µM (inactive)	> 100 µM (inactive)	> 100 µM (inactive)	> 100 µM (inactive)	> 100 µM (inactive)	> 100 µM (inactive)	> 100 µM (inactive)	> 100 µM (inactive)	> 100 µM (inactive)	> 100 µM (inactive)
CC1(O)C(C)(O)C(C)(O)C1(C)O (stereo unspecified)	> 100 µM (inactive)	> 100 µM (inactive)	> 100 µM (inactive)	> 100 µM (inactive)	> 100 µM (inactive)	> 100 µM (inactive)	> 100 µM (inactive)	> 100 µM (inactive)	> 100 µM (inactive)	> 100 µM (inactive)	> 100 µM (inactive)	> 100 µM (inactive)	> 100 µM (inactive)	> 100 µM (inactive)	> 100 µM (inactive)	> 100 µM (inactive)	> 100 µM (inactive)	> 100 µM (inactive)	> 100 µM (inactive)
O=c1c2cc(Br)ccc2nc(CNc2ccccc2)n1-c1ccccc1	14.6 µM (inactive)	3.09 µM (inactive)	13.4 µM (inactive)	16.8 µM (inactive)	30.9 µM (inactive)	16.7 µM (inactive)	26.7 µM (inactive)	14.9 µM (inactive)	9.59 µM (inactive)	17.4 µM (inactive)	6.84 µM (inactive)	52.8 µM (inactive)	17.4 µM (inactive)	16.2 µM (inactive)	14.1 µM (inactive)	12.7 µM (inactive)	15.2 µM (inactive)	23.2 µM (inactive)	8.51 µM (inactive)
C/C(CC(=O)Nc1ccc(C)c(C)c1)=N\N(c1ccccc1)c1ccccc1	99.1 µM (inactive)	26.4 µM (inactive)	43.4 µM (inactive)	88.1 µM (inactive)	> 100 µM (inactive)	> 100 µM (inactive)	> 100 µM (inactive)	64.1 µM (inactive)	62.5 µM (inactive)	> 100 µM (inactive)	15.2 µM (inactive)	> 100 µM (inactive)	58.7 µM (inactive)	> 100 µM (inactive)	42.9 µM (inactive)		15.2 µM (inactive)	> 100 µM (inactive)	21.6 µM (inactive)
